The source of these data is US20250205312A1, “Orally Available Albenatide” (AlbuNext, LLC, priority 2023, published 2025).

This test has as its system db/db mice. In words: Pharmacodynamics study: blood glucose level-time profiles after single treatment. It is filed as in vivo. The note with it: SC 0.8 mg/kg. The source says:
For pharmacodynamics studies, db/db mice were randomly divided into 5 groups (n=3). The test article preparation and dosing procedure followed the same way as described in PK study above. The study protocol is described in Table 6.

Values joined by “and” are separate entries in the source; they are usually repeats but may differ in a detail not shown here. Identical values can stand only once.

For the substance CJC-1134 [CJC-1134-SC], the “Blood Glucose AUC, Mean” value (db/db mice (n=3)) was 364.1 mmol·h/L. Further, the “Blood Glucose Level, Mean” value is 15.2 mmol/L (db/db mice (n=3), 0 h after fasting); 22.4 mmol/L (db/db mice (n=3), 0.25 h); 19.6 mmol/L (db/db mice (n=3), 0.5 h); 14.6 mmol/L (db/db mice (n=3), 1 h); 13.5 mmol/L (db/db mice (n=3), 3 h); 16.3 mmol/L (db/db mice (n=3), 6 h). Further, the “Blood Glucose Level, Mean” value is reported as 13.0 mmol/L (db/db mice (n=3), 8 h) and 17.4 mmol/L (db/db mice (n=3), 24 h). Also, the “Blood Glucose Level” value is 8.7 mmol/L and 16.4 mmol/L and 20.6 mmol/L (db/db mice, 0 h after fasting, individual mice, 0.8 mg/kg); 20.5 mmol/L and 21.2 mmol/L and 25.6 mmol/L (db/db mice, 0.25 h, individual mice, 0.8 mg/kg); 18.8 mmol/L and 21.0 mmol/L and 19.0 mmol/L (db/db mice, 0.5 h, individual mice, 0.8 mg/kg); 11.5 mmol/L and 16.5 mmol/L and 15.9 mmol/L (db/db mice, 1 h, individual mice, 0.8 mg/kg); 10.4 mmol/L and 14.0 mmol/L and 16.1 mmol/L (db/db mice, 3 h, individual mice, 0.8 mg/kg); 12.7 mmol/L and 18.7 mmol/L and 17.5 mmol/L (db/db mice, 6 h, individual mice, 0.8 mg/kg). Moreover, the “Blood Glucose Level” value is, setting by setting: (db/db mice, 8 h, individual mice, 0.8 mg/kg) 11.3 mmol/L and 16.3 mmol/L and 11.4 mmol/L; (db/db mice, 24 h, individual mice, 0.8 mg/kg) 17.0 mmol/L and 16.9 mmol/L and 18.4 mmol/L. Moreover, where the note is “db/db mice, individual mice, 0.8 mg/kg”, the “Blood Glucose AUC” value is 323.1 mmol·h/L and 399.5 mmol·h/L and 369.8 mmol·h/L.
